Reference: PMC12621045, “Development of Purine and Pyrrolopyrimidine Scaffolds as Potent, Selective, and Brain Penetrant NUAK1 Inhibitors” (ACS Medicinal Chemistry Letters, 2025)

Legend:
DYRK1A = DYRK1A (Homo sapiens, UniProt Q13627); assay: 33P-ATP radiometric filter binding kinase panel; conditions: read-out: % activity remaining
Excerpt: (§1) targets in radiometric filter binding assay using 33P-ATP at the MRC PPU International Centre for

TGFBR1 = TGFBR1 (Homo sapiens, UniProt P36897); assay: 33P-ATP radiometric filter binding kinase panel; conditions: read-out: % activity remaining
Excerpt: as §1

ABL = ABL (Homo sapiens, UniProt P00519); assay: 33P-ATP radiometric filter binding kinase panel; conditions: read-out: % activity remaining
HIPK1 = HIPK1 (Homo sapiens, UniProt Q86Z02); assay: 33P-ATP radiometric filter binding kinase panel; conditions: read-out: % activity remaining
Excerpt: as §1

GCK = GCK (Homo sapiens, UniProt Q12851); assay: 33P-ATP radiometric filter binding kinase panel; conditions: read-out: % activity remaining
Excerpt: as §1

CDK9-Cyclin T1 = CDK9-Cyclin T1 (Homo sapiens, UniProt P50750); assay: 33P-ATP radiometric filter binding kinase panel; conditions: read-out: % activity remaining
MARK1 = MARK1 (Homo sapiens, UniProt Q9P0L2); assay: 33P-ATP radiometric filter binding kinase panel; conditions: read-out: % activity remaining
Excerpt: as §1

EF2K = EF2K (Homo sapiens, UniProt O00418); assay: 33P-ATP radiometric filter binding kinase panel; conditions: read-out: % activity remaining
TESK1 = TESK1 (Homo sapiens, UniProt Q15569); assay: 33P-ATP radiometric filter binding kinase panel; conditions: read-out: % activity remaining
Excerpt: as §1

JAK3 = molecular target: T1, JAK3 (Homo sapiens, UniProt P52333); assay: 33P-ATP radiometric filter binding kinase panel; conditions: read-out: % activity remaining
T1 sequence (P52333 1-1124): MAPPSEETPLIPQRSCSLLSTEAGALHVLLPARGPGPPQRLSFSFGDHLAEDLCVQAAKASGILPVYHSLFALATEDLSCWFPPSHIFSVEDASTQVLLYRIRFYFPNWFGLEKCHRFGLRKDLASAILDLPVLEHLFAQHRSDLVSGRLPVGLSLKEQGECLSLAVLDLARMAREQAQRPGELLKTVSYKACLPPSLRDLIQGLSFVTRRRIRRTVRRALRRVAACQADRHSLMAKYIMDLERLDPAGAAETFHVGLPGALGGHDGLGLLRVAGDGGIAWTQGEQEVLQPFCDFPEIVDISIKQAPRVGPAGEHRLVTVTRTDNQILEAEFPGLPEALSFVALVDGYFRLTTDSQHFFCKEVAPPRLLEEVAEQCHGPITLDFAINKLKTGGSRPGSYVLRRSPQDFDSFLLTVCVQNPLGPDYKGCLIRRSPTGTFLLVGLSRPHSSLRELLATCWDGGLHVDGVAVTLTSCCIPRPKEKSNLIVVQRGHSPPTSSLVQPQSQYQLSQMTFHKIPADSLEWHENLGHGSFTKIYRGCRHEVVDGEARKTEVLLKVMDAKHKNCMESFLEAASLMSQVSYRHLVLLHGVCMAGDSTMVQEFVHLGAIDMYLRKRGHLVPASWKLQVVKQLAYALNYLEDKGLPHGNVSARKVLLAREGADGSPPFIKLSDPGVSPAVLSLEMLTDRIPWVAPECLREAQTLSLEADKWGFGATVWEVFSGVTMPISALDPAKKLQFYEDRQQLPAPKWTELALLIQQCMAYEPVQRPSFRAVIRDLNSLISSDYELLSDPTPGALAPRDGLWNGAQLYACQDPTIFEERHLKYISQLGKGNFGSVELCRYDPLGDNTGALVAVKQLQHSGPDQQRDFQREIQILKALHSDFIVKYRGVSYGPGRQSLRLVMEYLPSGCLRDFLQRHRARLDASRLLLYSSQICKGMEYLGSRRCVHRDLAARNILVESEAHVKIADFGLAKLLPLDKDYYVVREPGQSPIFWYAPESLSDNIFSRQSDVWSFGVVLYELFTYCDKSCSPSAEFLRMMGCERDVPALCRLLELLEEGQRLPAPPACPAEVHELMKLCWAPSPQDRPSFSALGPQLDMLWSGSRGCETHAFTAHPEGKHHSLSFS
Excerpt: as §1

PAK2 = PAK2 (Homo sapiens, UniProt Q13177); assay: 33P-ATP radiometric filter binding kinase panel; conditions: read-out: % activity remaining
Excerpt: as §1

PRK2 = PRK2 (Homo sapiens, UniProt Q16513); assay: 33P-ATP radiometric filter binding kinase panel; conditions: read-out: % activity remaining
PAK4 = PAK4 (Homo sapiens, UniProt O96013); assay: 33P-ATP radiometric filter binding kinase panel; conditions: read-out: % activity remaining
Excerpt: as §1

STK33 = STK33 (Homo sapiens, UniProt Q9BYT3); assay: 33P-ATP radiometric filter binding kinase panel; conditions: read-out: % activity remaining
PKD1 = PKD1 (Homo sapiens, UniProt Q15139); assay: 33P-ATP radiometric filter binding kinase panel; conditions: read-out: % activity remaining
IRAK4 = IRAK4 (Homo sapiens, UniProt Q9NWZ3); assay: 33P-ATP radiometric filter binding kinase panel; conditions: read-out: % activity remaining
Excerpt: as §1

MLK3 = MLK3 (Homo sapiens, UniProt Q16584); assay: 33P-ATP radiometric filter binding kinase panel; conditions: read-out: % activity remaining
[1] = Brain protein binding, equilibrium dialysis; conditions: mouse, brain tissue
Description: ADMET and PK experimental methods
Microsomal stability: analysis was performed by Cyprotex Discovery. Briefly, test compounds in
(0.5 mg protein/mL) in the presence of NADPH (1 mM) at 37 °C. Aliquots were taken at time intervals
MS/MS conditions for compound remaining, allowing the determination of the half-life for the
MDR1-MDCK Permeability (bi-directional): was performed by Cyprotex Discovery. Briefly,
compounds were administered at 10 µM (1% DMSO final) to the apical or basolateral side of a
confluent monolayer of MDR1- MDCK cells, then incubated at 37 °C for 60 minutes before appearance
on the opposite side of the monolayer was determined LC-MS/MS. The efflux ratio (ER) is calculated
from the ratio of B-A to A-B permeabilities.
Plasma protein binding: was performed by ChemPartner Co. Ltd. Briefly, compounds in DMSO
(1 µM, 0.2% DMSO final) were added to mouse plasma or brain tissue and dialysed against buffer for
5 hrs at 37 °C. The compound concentration in each of the plasma and buffer compartments was
determined by mass spectrometry and used to calculate the percentage compound bound.
Pharmacokinetic analysis: was performed by ChemPartner Co. Ltd. Male CD-1 mice (N=3 per
timepoint) were intraperitoneally dosed at 5 mg/kg, as a cassette of five compounds, formulated in 10%
DMSO, 10% Solutol HS 15, 80% (50 mM citrate buffer pH3.0) at 0.5 mg/mL. At the designated time
points a blood sample was collected from the facial vein into K2EDTA tubes, and plasma separated by
centrifugation. Mice were euthanised by CO2 inhalation and brains were dissected and homogenised.
Compound levels were quantified by LC-MS/MS and PK parameters estimated by a non-compartmental
model using WinNonlin 8.2.

SIK3 = SIK3 (Homo sapiens, UniProt Q9Y2K2); assay: 33P-ATP radiometric filter binding kinase panel; conditions: read-out: % activity remaining
Excerpt: as §1

PAK6 = PAK6 (Homo sapiens, UniProt Q9NQU5); assay: 33P-ATP radiometric filter binding kinase panel; conditions: read-out: % activity remaining
Excerpt: as §1

CSK = CSK (Homo sapiens, UniProt P41240); assay: 33P-ATP radiometric filter binding kinase panel; conditions: read-out: % activity remaining
Excerpt: as §1

p38g MAPK = p38g MAPK (Homo sapiens, UniProt P53778); assay: 33P-ATP radiometric filter binding kinase panel; conditions: read-out: % activity remaining
Excerpt: as §1

ERK2 = ERK2 (Homo sapiens, UniProt P28482); assay: 33P-ATP radiometric filter binding kinase panel; conditions: read-out: % activity remaining
Excerpt: as §1

MKK1 = MKK1 (Homo sapiens, UniProt Q02750); assay: 33P-ATP radiometric filter binding kinase panel; conditions: read-out: % activity remaining
Excerpt: as §1

PIM2 = PIM2 (Homo sapiens, UniProt Q9P1W9); assay: 33P-ATP radiometric filter binding kinase panel; conditions: read-out: % activity remaining
Excerpt: as §1

PAK2, sequence (Q13177 whole entry): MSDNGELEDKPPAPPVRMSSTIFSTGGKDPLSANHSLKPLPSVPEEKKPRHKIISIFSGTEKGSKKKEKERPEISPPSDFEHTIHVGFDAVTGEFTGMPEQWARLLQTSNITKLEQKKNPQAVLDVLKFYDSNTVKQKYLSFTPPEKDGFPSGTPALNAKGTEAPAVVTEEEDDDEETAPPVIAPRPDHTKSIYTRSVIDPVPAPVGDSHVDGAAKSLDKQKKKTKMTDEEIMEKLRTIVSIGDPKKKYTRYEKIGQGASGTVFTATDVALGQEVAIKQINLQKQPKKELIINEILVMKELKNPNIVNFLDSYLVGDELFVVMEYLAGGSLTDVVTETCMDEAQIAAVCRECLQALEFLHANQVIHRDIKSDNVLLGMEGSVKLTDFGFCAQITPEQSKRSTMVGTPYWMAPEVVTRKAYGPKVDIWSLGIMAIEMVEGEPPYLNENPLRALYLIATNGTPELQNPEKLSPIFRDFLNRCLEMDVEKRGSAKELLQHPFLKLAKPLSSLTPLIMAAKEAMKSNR
STK33, sequence (Q9BYT3 whole entry): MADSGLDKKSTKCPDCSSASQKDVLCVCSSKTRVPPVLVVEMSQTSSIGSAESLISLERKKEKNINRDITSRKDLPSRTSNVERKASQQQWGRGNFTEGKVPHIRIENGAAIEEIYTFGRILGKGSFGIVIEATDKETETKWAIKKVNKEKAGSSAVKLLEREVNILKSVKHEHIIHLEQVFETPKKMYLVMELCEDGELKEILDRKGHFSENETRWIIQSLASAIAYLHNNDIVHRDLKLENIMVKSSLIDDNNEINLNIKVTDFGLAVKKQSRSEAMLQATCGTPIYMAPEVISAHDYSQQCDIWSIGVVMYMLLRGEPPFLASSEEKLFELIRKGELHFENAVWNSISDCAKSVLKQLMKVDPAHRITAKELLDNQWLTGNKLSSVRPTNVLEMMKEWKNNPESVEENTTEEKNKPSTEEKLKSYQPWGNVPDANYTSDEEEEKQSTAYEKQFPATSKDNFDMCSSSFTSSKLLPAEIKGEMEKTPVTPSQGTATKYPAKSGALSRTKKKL
ABL, sequence (P00519 whole entry, species assumed): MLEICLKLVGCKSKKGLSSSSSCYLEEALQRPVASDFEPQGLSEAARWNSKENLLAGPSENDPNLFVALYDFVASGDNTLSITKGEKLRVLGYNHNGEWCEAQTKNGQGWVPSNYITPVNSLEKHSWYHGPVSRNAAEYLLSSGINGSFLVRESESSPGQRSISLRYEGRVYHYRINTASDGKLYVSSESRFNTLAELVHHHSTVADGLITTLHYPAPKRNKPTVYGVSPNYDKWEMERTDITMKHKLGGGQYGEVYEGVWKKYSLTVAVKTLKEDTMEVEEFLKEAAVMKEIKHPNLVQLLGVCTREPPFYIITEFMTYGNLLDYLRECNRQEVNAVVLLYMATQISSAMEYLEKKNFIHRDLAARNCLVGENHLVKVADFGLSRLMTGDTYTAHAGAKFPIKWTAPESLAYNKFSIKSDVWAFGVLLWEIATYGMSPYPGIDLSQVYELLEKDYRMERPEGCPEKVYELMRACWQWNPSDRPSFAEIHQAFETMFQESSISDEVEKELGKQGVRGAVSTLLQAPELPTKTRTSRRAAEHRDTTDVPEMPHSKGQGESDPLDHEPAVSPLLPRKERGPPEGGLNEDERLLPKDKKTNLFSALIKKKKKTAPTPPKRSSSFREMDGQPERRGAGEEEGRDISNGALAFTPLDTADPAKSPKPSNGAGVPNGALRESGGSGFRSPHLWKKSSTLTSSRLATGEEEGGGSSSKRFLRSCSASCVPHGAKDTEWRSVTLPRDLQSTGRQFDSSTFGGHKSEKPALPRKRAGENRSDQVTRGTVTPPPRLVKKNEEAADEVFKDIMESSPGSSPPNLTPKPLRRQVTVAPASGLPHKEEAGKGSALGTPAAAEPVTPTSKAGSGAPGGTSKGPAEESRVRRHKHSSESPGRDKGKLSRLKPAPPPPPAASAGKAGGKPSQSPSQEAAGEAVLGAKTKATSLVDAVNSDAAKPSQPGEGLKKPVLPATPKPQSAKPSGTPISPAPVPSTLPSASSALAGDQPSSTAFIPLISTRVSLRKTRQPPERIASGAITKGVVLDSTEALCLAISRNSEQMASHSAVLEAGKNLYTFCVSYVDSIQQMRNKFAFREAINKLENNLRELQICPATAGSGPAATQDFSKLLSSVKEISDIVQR
HIPK1, sequence (Q86Z02 whole entry): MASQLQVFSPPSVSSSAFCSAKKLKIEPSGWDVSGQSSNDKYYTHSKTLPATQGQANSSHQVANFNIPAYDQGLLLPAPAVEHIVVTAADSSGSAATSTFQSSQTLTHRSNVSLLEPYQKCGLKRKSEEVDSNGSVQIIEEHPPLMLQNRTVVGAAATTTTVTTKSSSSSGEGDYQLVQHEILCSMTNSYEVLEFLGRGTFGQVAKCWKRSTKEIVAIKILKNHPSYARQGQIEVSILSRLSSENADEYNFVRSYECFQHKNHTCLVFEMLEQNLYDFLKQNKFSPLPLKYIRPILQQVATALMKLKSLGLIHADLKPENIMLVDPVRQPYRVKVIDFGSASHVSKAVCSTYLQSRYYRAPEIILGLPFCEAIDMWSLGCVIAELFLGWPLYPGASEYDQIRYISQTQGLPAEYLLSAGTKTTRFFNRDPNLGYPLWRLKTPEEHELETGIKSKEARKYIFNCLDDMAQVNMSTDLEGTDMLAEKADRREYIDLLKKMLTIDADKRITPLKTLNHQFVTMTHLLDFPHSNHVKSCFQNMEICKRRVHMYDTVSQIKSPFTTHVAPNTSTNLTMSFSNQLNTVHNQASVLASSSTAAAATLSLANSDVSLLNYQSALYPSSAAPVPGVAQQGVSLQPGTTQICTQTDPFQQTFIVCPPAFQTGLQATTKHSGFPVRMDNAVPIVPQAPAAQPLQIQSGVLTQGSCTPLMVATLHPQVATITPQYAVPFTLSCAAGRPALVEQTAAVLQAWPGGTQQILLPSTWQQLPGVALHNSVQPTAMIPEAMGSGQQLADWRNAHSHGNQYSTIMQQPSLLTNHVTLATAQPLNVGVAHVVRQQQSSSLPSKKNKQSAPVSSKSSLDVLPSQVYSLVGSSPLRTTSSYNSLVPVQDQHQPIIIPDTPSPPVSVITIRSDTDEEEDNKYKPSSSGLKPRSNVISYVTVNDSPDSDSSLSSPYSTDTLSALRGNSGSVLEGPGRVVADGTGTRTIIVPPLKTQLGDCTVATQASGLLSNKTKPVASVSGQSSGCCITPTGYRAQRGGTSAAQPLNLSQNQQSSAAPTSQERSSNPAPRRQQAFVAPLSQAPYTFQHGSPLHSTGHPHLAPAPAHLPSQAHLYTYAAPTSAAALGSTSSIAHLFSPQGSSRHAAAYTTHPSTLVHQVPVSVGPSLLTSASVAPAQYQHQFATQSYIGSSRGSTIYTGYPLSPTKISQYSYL
GCK, sequence (Q12851 whole entry): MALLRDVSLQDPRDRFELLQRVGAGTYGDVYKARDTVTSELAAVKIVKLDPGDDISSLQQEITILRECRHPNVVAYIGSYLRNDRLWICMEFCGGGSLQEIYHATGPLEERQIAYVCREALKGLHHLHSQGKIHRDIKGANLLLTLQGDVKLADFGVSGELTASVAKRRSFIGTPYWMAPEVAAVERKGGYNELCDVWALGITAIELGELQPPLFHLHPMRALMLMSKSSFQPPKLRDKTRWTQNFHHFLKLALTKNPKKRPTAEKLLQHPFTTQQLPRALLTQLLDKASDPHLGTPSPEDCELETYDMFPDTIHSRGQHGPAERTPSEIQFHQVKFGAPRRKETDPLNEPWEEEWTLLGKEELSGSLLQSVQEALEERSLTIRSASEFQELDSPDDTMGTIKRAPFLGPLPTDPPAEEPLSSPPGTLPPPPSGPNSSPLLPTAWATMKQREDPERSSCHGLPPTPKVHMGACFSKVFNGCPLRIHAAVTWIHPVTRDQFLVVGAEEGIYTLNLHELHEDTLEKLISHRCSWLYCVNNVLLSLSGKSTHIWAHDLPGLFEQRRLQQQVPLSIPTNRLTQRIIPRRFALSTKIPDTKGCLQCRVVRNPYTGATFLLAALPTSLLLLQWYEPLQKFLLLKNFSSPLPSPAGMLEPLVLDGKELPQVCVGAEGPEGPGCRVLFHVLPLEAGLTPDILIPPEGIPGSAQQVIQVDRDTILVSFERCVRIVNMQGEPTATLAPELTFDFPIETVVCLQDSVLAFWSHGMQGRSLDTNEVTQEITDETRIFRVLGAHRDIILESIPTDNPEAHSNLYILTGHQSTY
MLK3, sequence (Q16584 whole entry): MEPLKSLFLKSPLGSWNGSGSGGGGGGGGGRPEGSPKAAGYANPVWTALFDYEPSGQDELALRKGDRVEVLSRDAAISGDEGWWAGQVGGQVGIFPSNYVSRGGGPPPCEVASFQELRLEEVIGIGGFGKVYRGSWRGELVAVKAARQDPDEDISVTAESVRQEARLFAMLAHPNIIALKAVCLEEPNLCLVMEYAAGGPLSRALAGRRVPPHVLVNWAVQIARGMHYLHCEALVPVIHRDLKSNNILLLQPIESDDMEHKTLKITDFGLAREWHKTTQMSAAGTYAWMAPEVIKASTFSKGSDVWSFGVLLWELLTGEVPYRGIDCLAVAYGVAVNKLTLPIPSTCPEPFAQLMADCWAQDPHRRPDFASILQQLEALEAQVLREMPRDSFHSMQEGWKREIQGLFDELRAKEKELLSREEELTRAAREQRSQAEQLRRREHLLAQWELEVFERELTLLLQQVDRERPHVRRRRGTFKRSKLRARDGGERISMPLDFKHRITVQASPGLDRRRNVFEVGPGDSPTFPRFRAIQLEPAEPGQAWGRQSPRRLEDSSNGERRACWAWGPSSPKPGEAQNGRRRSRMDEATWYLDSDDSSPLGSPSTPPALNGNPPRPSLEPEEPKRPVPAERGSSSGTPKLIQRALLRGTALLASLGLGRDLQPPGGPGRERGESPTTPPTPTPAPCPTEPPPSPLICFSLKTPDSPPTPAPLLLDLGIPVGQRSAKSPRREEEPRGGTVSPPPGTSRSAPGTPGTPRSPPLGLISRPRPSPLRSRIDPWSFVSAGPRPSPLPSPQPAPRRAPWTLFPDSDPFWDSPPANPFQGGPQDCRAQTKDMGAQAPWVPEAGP

Compound | remaining activity at 1 µM (DYRK1A) | remaining activity at 1 µM (TGFBR1) | remaining activity at 1 µM (ABL) | remaining activity at 1 µM (HIPK1) | remaining activity at 1 µM (GCK) | remaining activity at 1 µM (CDK9-Cyclin T1) | remaining activity at 1 µM (MARK1) | remaining activity at 1 µM (EF2K) | remaining activity at 1 µM (TESK1) | remaining activity at 1 µM (JAK3) | remaining activity at 1 µM (PAK2) | remaining activity at 1 µM (PRK2) | remaining activity at 1 µM (PAK4) | remaining activity at 1 µM (STK33) | remaining activity at 1 µM (PKD1) | remaining activity at 1 µM (IRAK4) | remaining activity at 1 µM (MLK3) | fraction unbound at 5 h, 1 µM [1] | remaining activity at 1 µM (SIK3) | remaining activity at 1 µM (PAK6) | also measured
CC(C)N1CCN(c2ccc(Nc3nc(OCC4CCOC(C)(C)C4)c4nc[nH]c4n3)cc2)CC1 (centres unmarked) [Compound 20] | 92% | 95% | 34% | 95% | 61% | 94% | 45% | 101% | 45% | 22% | 90% | 57% | 52% | 96% | 31% | 100% | 33% | 0.039 | 64% | 89% | remaining activity at 1 µM (CSK): 82%; remaining activity at 1 µM (p38g MAPK): 97%; remaining activity at 1 µM (ERK2): 98%; remaining activity at 1 µM (MKK1): 73%; remaining activity at 1 µM (PIM2): 107%
CC(C)N1CCN(c2ccc(Nc3nc(OCC4CC4)c4cc[nH]c4n3)cc2)CC1 [Compound 23] | 53% | 114% | 10% | 63% | 34% | 110% | 16% | 113% | 68% | 23% | 95% | 43% | 8% | 51% | 6% | 67% | 92% | 0.002 | 80% | 56% | remaining activity at 1 µM (CSK): 97%; remaining activity at 1 µM (p38g MAPK): 97%; remaining activity at 1 µM (ERK2): 93%; remaining activity at 1 µM (MKK1): 95%; remaining activity at 1 µM (PIM2): 103%
